The source of these data is patent US20220267390A1, “MPS MODIFIED PEPTIDES AND USE THEREOF” (The Regents of the University of California, priority 2019, published 2022).

Where a SMILES comes first, the peptide text is derived from it. Where no end group is shown, it is not given here. [ ]: non-standard residue; d: D form.

The subject of the first experiment is H1650 cells.
Assay: not given
Details: not given
The experiment is classed as cell-based. How it is done: IC50 (half maximal inhibitory concentration; μM) values in lung cancer cells. […] The residues marked in red/bold are D-isoforms of amino acids (SEQ ID NOS: 57, 48-54, 40-42 45 and 47 in order of appearance).
Molecular basis of MPS peptide and its potential for increasing nintedanib efficacy. […] A kinetic assay confirmed that this peptide binds PIP2 with a dissociation constant of 17.64 nM (FIG. 10B). As expected, a decrease of PIP3 pools in whole cell lysates of MPS-treated IPF fibroblasts was observed (FIG. 10C), supporting the notion that MPS peptide is able to inhibit AKT activation through trapping PIP2. In view of adverse effects of the current IPF therapeutic nintedanib^9, 10, there is an urgent clinical need to improve the efficacy of such treatment in IPF. Since the TGF-β receptor is not a direct target of nintedanib, targeting an element of TGF-β signaling in tandem with nintedanib administration circumvents the shortcomings of nintedanib monotherapy. […] Based on the above observations, it is assumed that TGF-β-directed phospho-MARCKS is a bypass mechanism of activating PI3K/AKT signaling (FIG. 11B); therefore, it seems reasonable that MARCKS inhibition by MPS treatment may improve nintedanib efficacy, permitting lower doses of nintedanib to be used. To this end, the possibility of a synergistic interaction between MPS and nintedanib in order to circumvent the shortcomings of nintedanib monotherapy was tested. […] Furthermore, the Chou and Talalay CI (combination index) method^25 was used to evaluate the therapeutic interactions between nintedanib and MPS peptide. […] Particularly, the values were lower than 1 at ED50, approximately 1 at ED75, and above 1 at ED90 (data not shown). Thus, the combination effect was dose-dependently correlated with the components, and therefore low dose nintedanib in combination with low dose of MPS presents a synergistic effect on cell proliferation. […] On the basis of the sequences of MPS peptide, the rearrangement of PIP2-binding sites in this peptide were designed and synthesized with the intention of enhancing the efficacy and stability of the MPS peptide. FIG. 13 lists the sequences of various MPS derivatives. In light of the cleavage sites of various proteases and PIP2 binding motifs, Applicant replaced some L-isoform amino acids with D-isoform and these peptides were named as MPS-12042 and MPS-22026. To further validate the efficacy of the above MPS derivatives, Applicant performed a dose-course analysis of H1650 cells undergoing each MPS derivative treatment.
KKKKKAFSFKKSFKLSGFSFKKNKK [MPS-11006]: the IC50 was found to be 79 µM.
Turning to AKKKKRFSFKKSFKLSGFSFKKNKK [MPS-11001], the IC50 came out at 85 µM.
Consider KKKKKRFSFKASFKLSGFSFKKNKK [MPS-11011], for which the IC50 stood at 29 µM.
Take KKKKFSFGSFSLKKFSFRKKKNKK [MPS-21020]: the IC50 worked out at 64 µM.
On the same count and under the same terms, to KKAKKRFSFKKSFKLSGFSFKKNKK [MPS-11003] belongs 85 µM; to KKKKKRFSFAKSFKLSGFSFKKNKK [MPS-11010], 73 µM.
KKKKFAFGAFALKKFAFRKKKNKK [MPS-21026]: the IC50 amounted to 49 µM.
For `CC(C)C[C@@H](NC(=O)[C@@H](C)NC(=O)[C@@H](Cc1ccccc1)NC(=O)[C@@H](C)NC(=O)CNC(=O)[C@@H](Cc1ccccc1)NC(=O)[C@H](C)NC(=O)[C@@H](Cc1ccccc1)NC(=O)[C@H](CCCCN)NC(=O)[C@H](CCCCN)NC(=O)[C@H](CCCCN)NC(=O)[C@H](CCCCN)NC(=O)[C@@H](N)CCCCN)C(=O)N[C@@H](CCCCN)C(=O)N[C@H](CCCCN)C(=O)N[C@H](Cc1ccccc1)C(=O)N[C@@H](C)C(=O)N[C@H](Cc1ccccc1)C(=O)N[C@H](CCCNC(=N)N)C(=O)N[C@H](CCCCN)C(=O)N[C@@H](CCCCN)C(=O)N[C@@H](CCCCN)C(=O)N[C@@H](CC(N)=O)C(=O)N[C@H](CCCCN)C(=O)N[C@@H](CCCCN)C(=O)O` [MPS-22026] (H-KKKKK[dF]A[dF]G[dA][dF][dA][dL]K[dK][dF]A[dF][dR][dK]KKN[dK]K-OH; N-terminus and C-terminus assumed), the IC50 was 11 µM.
Regarding KKKKKRFSFKKSFKLSGFSFKANKK [MPS-11022], the IC50 was 83 µM.
Still for that read-out and setting: to FSFGSFSLKKFSFRKKKNKK [MPS-21010] belongs 83 µM; to “Ac-KKKKKRFSFKKSFKLSGFSFKKNKK-NH2 [MPS-11200]”, 78 µM.

In a further experiment the test system is IPF fibroblast cells. As to the kind of experiment: cells. Particulars: Homo sapiens; IPF fibroblast cells, 72 hours; read-out: IC50 inhibiting IPF fibroblast proliferation. The experiment is classed as cell-based, human. How it is done: FIG. 14: Comparison of MPS-12042 (SEQ ID NO: 45) versus know tyrosine kinase inhibitor (TKLs) on the treatment of IPF fibroblast cells. Both normal and IPF lung fibroblast cells were treated with various drugs. After 72 hours, cells were subjected to MTT assays and IC50 for each drug was determined.
Human primary fibroblast cells were obtained from airway tissues provided from the UC Davis Medical Hospital (Sacramento, Calif.) with consent. The protocol for human tissue procurement and usage were periodically reviewed and approved by the University Human Subject Research Review Committee. Primary fibroblast cell lines, IPF-1 and IPF-2 cells, were established from IPF patients. Cells were obtained from lung biopsies and the diagnosis of IPF was supported by patient history, physical examination, pulmonary function tests, and typical high-resolution chest computed tomography findings of IPF. […] All patients fulfilled the criteria for the diagnosis of IPF as established by the American Thoracic Society and European Respiratory Society. Non-fibrotic primary control adult human lung fibroblast lines, Normal-1 and Normal-2 cells were used. These lines were established from normal lung tissue or histologically normal lung tissue adjacent to carcinoid tumor. The IPF cell line, LL97A, was purchased from the American Type Culture Collection (ATCC) (Manassas, Va.). Lung fibroblast lines were cultured in high-glucose DMEM or RPMI-1640 medium with 10% fetal bovine serum and 1% penicillin-streptomycin at 37° C. in a humidified atmosphere of 5% CO2. Fibroblasts were used between passages 4 and 8. Cells were characterized as fibroblasts as described^26.
Cells were seeded onto 96-well plates at a density of 5-10×10^3 cells per well and cultured for the indicated treatment. Cell proliferation was evaluated using a MTS assay kit (Promega, Madison, Wis.). Twenty microliters of the combined MTS/PMS solution was added into each well, incubated for 3 hours at 37° C., and the absorbance was measured at 490 nm by using an ELISA reader. For Trypan blue test, cells were plated on 12-well plates and treated with the indicated chemotherapeutic agents. After 72 hours, both attached and detached cells were collected and then stained with 0.2% trypan blue (0.1% final concentration), and the number of trypan blue-positive and -negative cells was counted using a haemocytometer under low-power microscopy. For colony-forming assays, 200 cells were seeded in each well of six-well plates. IPF-1 or IPF-2 primary cells were treated with peptides at the indicated concentrations for 10 days. Colonies were stained using 0.001% crystal violet and the number of colonies with a diameter greater than 0.5 mm was counted under an inverted microscope.
On to `COC(=O)c1ccc2c(c1)NC(=O)/C2=C(\Nc1ccc(N(C)C(=O)CN2CCN(C)CC2)cc1)c1ccccc1` [nintedanib, reference compound], for which the IC50 was in the range of 13.8 to 15.9 µM.

The test system of another experiment is α-SMA and phospho-AKT. As to the kind of experiment: Western blot of α-SMA and phospho-AKT in primary IPF fibroblasts. The experiment is classed as cell-based, human. As to conditions: nintedanib 1000 nM, 48 hours. As to the method:
FIGS. 11A-11B: (FIG. 11A) Western blot analysis of α-SMA and phospho-AKT in primary IPF fibroblasts with nintedanib (1000 nM) and/or MPS (100 μM) for 48 hours. (FIG. 11B) A proposed model of activating the PI3K/AKT pathway after nintedanib treatment. An arrow: a direct interaction. Western blot analyses and the preparations of whole-cell lysates have been previously described^14, 16, 27 For whole cell lysates, cells were lysed in a lysis buffer (50 mM Tris-HCl (pH 7.4), 1% Triton X-100, 10% glycerol, 150 mM NaCl, 1 mM EDTA, 20 μg/ml leupeptin, 1 mM PMSF and 20 μg/ml aprotinin) and separated by SDS-PAGE. Immunoblotting was conducted with appropriate antibodies followed by chemiluminescent detection. For immunofluorescent staining, after an antigen retrieval step, tissue slides were reacted with antibodies against FITC-labeled α-SMA and TRITC-conjugated phospho-MARCKS, and nuclei were demarcated with DAPI staining. The cells were mounted onto slides and visualized using fluorescence microscopy (model Axiovert 100; Carl Zeiss, Oberkochen, Germany) or a Zeiss LSM510 laser-scanning confocal microscope image system.
Take `COC(=O)c1ccc2c(c1)NC(=O)/C2=C(\Nc1ccc(N(C)C(=O)CN2CCN(C)CC2)cc1)c1ccccc1` [nintedanib, reference compound]: the phospho-AKT entry is given as “no change” and the α-SMA expression entry was “increase”.

The test system of a further experiment is primary IPF fibroblasts. Put plainly: Combination of nintedanib and MPS peptide, cell viability by MTT, Chou and Talalay CI. The experiment is classed as cell-based, human. Particulars: nintedanib 62.5-2000 nM and/or MPS 6.25-200 μM, 72 hours. As to the method:
FIGS. 12A-12E: (FIGS. 12A-12B) Combinatorial effect of MPS peptide with nintedanib on fibroblasts isolated from two IPF patients. Cells were treated with various closes of nintedanib (62.5-2000 nM) and/or MPS peptide (6.25-200 μM) for 72 hours, respectively. After single ([…]) or combined ([…]) treatment, cell viability was determined by MTT assays. (FIG. 12C) The Chou and Talalay CI (combination index) method was utilized to evaluate the therapeutic interactions between nintedanib and MPS peptide using the Calcusyn software. Gray line, additive effect of the combination of MPS peptide and the drug is represented at CI=1. (FIG. 12D) Cells were individually treated with 1 μM nintedanib, 100 μM MPS peptide or combinations of 1 μM nintedanib and 100 μM MPS peptide. After 48 hours, cell viability was determined by the trypan blue exclusion assay (n+3; *, p<0.05). […] Molecular basis of MPS peptide and its potential for increasing nintedanib efficacy. […] A kinetic assay confirmed that this peptide binds PIP2 with a dissociation constant of 17.64 nM (FIG. 10B). As expected, a decrease of PIP3 pools in whole cell lysates of MPS-treated IPF fibroblasts was observed (FIG. 10C), supporting the notion that MPS peptide is able to inhibit AKT activation through trapping PIP2. […]
With `COC(=O)c1ccc2c(c1)NC(=O)/C2=C(\Nc1ccc(N(C)C(=O)CN2CCN(C)CC2)cc1)c1ccccc1` [nintedanib, reference compound], the Cell viability result was “decreased”.
